In patent publication US20120129842A1, “BISTHIAZOLE INHIBITORS OF PRO-MATRIX METALLOPROTEINASE ACTIVATION” (priority 2010, published 2012):
Where a name gives a salt, the structure may show the parent alone.

Assays:
[1] = biological target: T1, proMMP9(67-444;ΔFnII) (SEQ ID NO:5) (Homo sapiens, UniProt P14780, DEL216-390); experiment: ThermoFluor binding assay with proMMP9(67-444;ΔFnII); conditions: pH 7.0
T1 construct: start methionine (N); made in house; host or cells: E. coli BL21(DE3) RIL
T1 sequence (P14780 with tags, fused parts or gaps DEL216-390): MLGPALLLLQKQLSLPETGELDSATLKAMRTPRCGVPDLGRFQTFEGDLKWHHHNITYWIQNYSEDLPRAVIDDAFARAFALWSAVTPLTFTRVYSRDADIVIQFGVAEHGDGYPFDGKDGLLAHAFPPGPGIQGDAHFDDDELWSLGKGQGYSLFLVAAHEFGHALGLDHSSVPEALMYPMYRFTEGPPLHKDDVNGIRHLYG
Protocol: (§1) The ThermoFluor® (TF) assay is a 384-well plate-based binding assay that measures thermal stability of proteins (Biomol Screen 2001, 6, 429-40; Biochemistry 2005, 44, 5258-66). The experiments were carried out using instruments available from Johnson & Johnson Pharmaceutical Research & Development, LLC. TF dye used in all experiments was […] (1,8-ANS) (Invitrogen: A-47).
(§2) Compounds were arranged in a pre-dispensed plate (Greiner Bio-one: 781280), wherein compounds were serially diluted in 100% DMSO across 11 columns within a series. Columns 12 and 24 were used as DMSO reference and contained no compound. For multiple compound concentration-response experiments, the compound aliquots ([…]) were robotically predispensed directly into black 384-well polypropylene PCR microplates (Abgene: TF-0384/k) using a Cartesian Hummingbird liquid handler (DigiLab, Holliston, Mass.). Following compound dispense, protein and dye solutions were added to achieve the final assay volume of 3 μL. The assay solutions were overlayed with 1 μL of silicone oil (Fluka, type DC 200: 85411) to prevent evaporation.
(§3) Assay plates were robotically loaded onto a thermostatically controlled PCR-type thermal block and then heated from 40 to 90° C. at a ramp-rate of 1° C./min for all experiments. Fluorescence was measured by continuous illumination with UV light (Hamamatsu LC6) supplied via fiber optics and filtered through a band-pass filter (380-400 nm; >6 OD cutoff). Fluorescence emission of the entire 384-well plate was detected by measuring light intensity using a CCD camera (Sensys, Roper Scientific) filtered to detect 500±25 nm, resulting in simultaneous and independent readings of all 384 wells. A single image with 20-sec exposure time was collected at each temperature, and the sum of the pixel intensity in a given area of the assay plate was recorded vs temperature and fit to standard equations to yield the Tm (J Biomol Screen 2001, 6, 429-40).
(§4) Thermodynamic parameters necessary for fitting compound binding for each proMMP were estimated by differential scanning calorimetry (DSC) and from ThermoFluor® data. The heat capacity of unfolding for each protein was estimated from the molecular weight and from ThermoFluor® dosing data.
The protein sample preparations had to include a desalting buffer exchange step via a PD-10 gravity column (GE Healthcare). The desalting buffer exchange was performed prior to diluting the protein to the final assay concentration of 3.5 μM proMMP9(67-444;ΔFnII) (SEQ ID NO:5). The concentration of proMMP9(67-444;ΔFnII) (SEQ ID NO:5) was determined spectrophotometrically based on a calculated extinction coefficient of ε280=33900 M^−1cm^−1, a calculated molecular weight of 22.6 kDa, and calculated pI of 5.20. ThermoFluor® reference conditions were defined as follows: 80 μg/mL (3.5 μM) proMMP9(67-444;ΔFnII) (SEQ ID NO:5), 50 μM 1,8-ANS, pH 7.0 Buffer (50 mM HEPES pH 7.0, 100 mM NaCl, 0.001% Tween-20, 2.5 mM MgCl2, 300 μM CaCl2). The thermodynamic parameters for proMMP9(67-444;ΔFnII) (SEQ ID NO:5) are as follows: Tm (° C.)=63 (+/−0.1), ΔUH(Tm) (cal mol^−1)=105000(+/−5000), ΔUS(Tm) (cal mol^−1 K^−1)=[…], ΔUCp (cal mol^−1 K^−1)=2000.

[2] = biological target: T2, full-length proMMP9(1-707) (SEQ ID NO:1) (Homo sapiens, UniProt P14780, R574P); experiment: proMMP9/MMP3 P126 Activation Assay; format: biochemical; conditions: 20 nM proMMP9, 20 nM MMP3, 80 min 37° C.
T2 construct: made in house; host or cells: HEK293 (proMMP9, secreted); E. coli (MMP3)
Protocol: The reaction volume was 50 μL. […] Reactivity of residual MMP3 towards P-126 substrate was minimal under these conditions.

[3] = biological target: T3, proMMP9(20-445;ΔFnII) (SEQ ID NO:6) (Homo sapiens, UniProt P14780, DEL216-390); experiment: ThermoFluor binding assay with proMMP9(20-445;ΔFnII); conditions: pH 7.0
T3 construct: start methionine (N); made in house; host or cells: E. coli BL21(DE3) RIL
T3 sequence (P14780 with tags, fused parts or gaps DEL216-390): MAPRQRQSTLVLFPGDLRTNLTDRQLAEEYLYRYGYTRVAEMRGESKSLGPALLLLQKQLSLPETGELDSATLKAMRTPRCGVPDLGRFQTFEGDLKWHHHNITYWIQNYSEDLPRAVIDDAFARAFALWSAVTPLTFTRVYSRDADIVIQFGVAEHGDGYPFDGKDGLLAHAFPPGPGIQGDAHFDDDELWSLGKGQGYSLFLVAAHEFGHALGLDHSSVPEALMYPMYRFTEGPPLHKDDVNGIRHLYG
Protocol: as §1, §2, §3, §4
The protein sample preparations included a desalting buffer exchange step via a PD-10 gravity column (GE Healthcare). The desalting buffer exchange was performed prior to diluting the protein to the final assay concentration of 2.8 μM proMMP9(20-445;ΔFnII) (SEQ ID NO:6). The concentration of proMMP9(20-445;ΔFnII) (SEQ ID NO:6) was determined spectrophotometrically based on a calculated extinction coefficient of ε280=39880 M^−cm^−1, a calculated molecular weight of 28.2 kDa, and calculated pI of 5.5. ThermoFluor® reference conditions were define as follows: 80 μg/mL (2.8 μM) proMMP9(20-445;ΔFnII) (SEQ ID NO:6), 50 μM 1,8-ANS, pH 7.0 Buffer (50 mM HEPES pH 7.0, 100 mM NaCl, 0.001% Tween-20, 2.5 mM MgCl2, 300 μM CaCl2). The thermodynamic parameters for proMMP9(20-445;ΔFnII) (SEQ ID NO:6) are as follows: Tm (° C.)=72 (+/−0.1), ΔUH(Tm) (cal mol^−1)=160000(+/−5000), ΔUS(Tm) (cal mol^−1 K^−1)=434, ΔUCp (cal mol^−1 K^−)=2400.

T2 sequence (P14780 20-707 R574P): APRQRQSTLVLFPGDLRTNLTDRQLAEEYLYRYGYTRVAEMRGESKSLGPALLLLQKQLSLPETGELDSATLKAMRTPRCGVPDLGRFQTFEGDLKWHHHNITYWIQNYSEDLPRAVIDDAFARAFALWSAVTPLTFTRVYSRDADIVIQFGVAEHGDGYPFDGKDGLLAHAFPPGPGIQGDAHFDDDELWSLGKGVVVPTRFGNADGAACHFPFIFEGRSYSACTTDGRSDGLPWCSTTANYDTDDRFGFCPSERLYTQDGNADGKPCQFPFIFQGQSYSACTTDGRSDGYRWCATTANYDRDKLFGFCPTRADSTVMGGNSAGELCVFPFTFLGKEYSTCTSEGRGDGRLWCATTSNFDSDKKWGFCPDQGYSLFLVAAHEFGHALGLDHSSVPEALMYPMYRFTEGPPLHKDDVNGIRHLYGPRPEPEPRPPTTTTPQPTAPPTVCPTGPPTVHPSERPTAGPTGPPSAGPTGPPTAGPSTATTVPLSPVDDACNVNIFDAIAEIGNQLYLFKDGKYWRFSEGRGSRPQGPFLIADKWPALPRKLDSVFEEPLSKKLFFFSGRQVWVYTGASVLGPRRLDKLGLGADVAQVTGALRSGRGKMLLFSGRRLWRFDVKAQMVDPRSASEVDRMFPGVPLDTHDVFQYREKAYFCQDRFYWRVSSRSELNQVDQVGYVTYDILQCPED

Row | Kd [1] | IC50 [2] | Kd [3] | SMILES
1 | 9.7 µM | 9.8 µM | 19 µM | COc1ccc(NC(C)=O)cc1Nc1nc(-c2sc(N)nc2C)cs1 [Example 84, N-[3-(2′-Amino-4′-methyl-[4,5′]bithiazolyl-2-ylamino)-4-methoxy-phenyl]-acetamide.TFA]
2 | 8.2 µM | ~6 µM | 38 µM | COc1ccc(-c2cnn(C)c2)cc1Nc1nc(-c2sc(C)nc2C)cs1 [Example 136, (2′,4′-Dimethyl-[4,5′]bithiazolyl-2-yl)-[2-methoxy-5-(1-methyl-1H-pyrazol-4-yl)-phenyl]-amine]
3 |  | 0.29 µM |  | CCOc1ccncc1Nc1nc(-c2sc(C3CCN(C)CC3)nc2C)cs1 [Example 158, N-(4-Ethoxypyridin-3-yl)-4′-methyl-2′-(1-methylpiperidin-4-yl)-[4,5′-bithiazol]-2-amine.TFA]
4 | 0.57 µM | 0.41 µM | 3.7 µM | COc1ccncc1Nc1nc(-c2sc(C)nc2C)cs1 [Example 151, N-(4-Methoxypyridin-3-yl)-2′,4′-dimethyl-[4,5′-bithiazol]-2-amine]
5 | > 95 µM | > 20 µM | 1.9 µM | Cc1nc(-c2ncc(C(F)(F)F)cc2N2CCCC2)sc1-c1csc(Nc2cc(C(N)=O)ccc2OC(C)C)n1 [Example 97, 4-Isopropoxy-3-[4′-methyl-2′-(3-pyrrolidin-1-yl-5-trifluoromethyl-pyridin-2-yl)-[4,5′]bithiazolyl-2-ylamino]-benzamide.TFA]
6 | 1.2 µM | 1 µM | 8.6 µM | Cc1nc(C)c(-c2csc(Nc3cc(C#N)ccc3OC(C)C)n2)s1 [Example 72, 3-(2′,4′-Dimethyl-[4,5′]bithiazolyl-2-ylamino)-4-isopropoxy-benzonitrile.HBr]
7 | 52 µM | 9.1 µM | > 95 µM | Cc1nc(C)c(-c2csc(Nc3cccc4cccnc34)n2)s1 [Example 42, (2′,4′-Dimethyl-[4,5′]bithiazolyl-2-yl)-quinolin-8-yl-amine.TFA]
8 |  | 0.8 µM | 0.55 µM | Cc1nc(C)c(-c2csc(Nc3cc(C(N)=O)ccc3CC(C)C)n2)s1 [Example 38, 3-(2′,4′-Dimethyl-[4,5′]bithiazolyl-2-ylamino)-4-isobutyl-benzamide.TFA]
9 | 0.087 µM | 0.45 µM | 0.56 µM | COc1ccc([N+](=O)[O-])cc1Nc1nc(-c2sc(N)nc2C)cs1 [Example 67, N^2-(2-Methoxy-5-nitro-phenyl)-4′-methyl-[4,5′]bithiazolyl-2,2′-diamine.HBr]
10 | 4.5 µM | 1.4 µM | 1.6 µM | Cc1nc(C)c(-c2nc(Nc3cc(C(N)=O)ccc3OC(C)C)sc2C)s1 [Example 153, 4-Isopropoxy-3-((2′,4′,5-trimethyl-[4,5′-bithiazol]-2-yl)amino)benzamide]
11 | 0.45 µM | 0.41 µM | 0.35 µM | Cc1nc(N)sc1-c1csc(Nc2cc(C(=O)O)ccc2OC(C)C)n1 [Example 77, 3-(2′-Amino-4′-methyl-[4,5′]bithiazolyl-2-ylamino)-4-isopropoxy-benzoic acid.TFA]
12 | 2.3 µM | 12 µM | 1.3 µM | COc1ccc(C(=O)NCc2ccccc2)cc1Nc1nc(-c2sc(N)nc2C)cs1 [Example 56, 3-(2′-Amino-4′-methyl-[4,5′]bithiazolyl-2-ylamino)-N-benzyl-4-methoxy-benzamide.TFA]
13 | 2.2 µM | 4.7 µM | 11 µM | COc1ccc(-c2cc[nH]n2)cc1Nc1nc(-c2sc(C)nc2C)cs1 [Example 137, (2′,4′-Dimethyl-[4,5′]bithiazolyl-2-yl)-[2-methoxy-5-(1H-pyrazol-3-yl)-phenyl]-amine]
14 |  | 5.6 µM |  | CC(=O)Nc1nc(C)c(-c2csc(Nc3cccc4c3OC(F)(F)O4)n2)s1 [Example 10, N-[2-(2,2-Difluoro-benzo[1,3]dioxol-4-ylamino)-4′-methyl-[4,5′]bithiazolyl-2′-yl]-acetamide]
15 | 61 µM | ~13 µM | 84 µM | COc1cc(Nc2nc(-c3sc(C)nc3C)cs2)c2ncccc2c1 [Example 41, (2′,4′-Dimethyl-[4,5′]bithiazolyl-2-yl)-(6-methoxy-quinolin-8-yl)-amine.TFA]
16 | 3.9 µM |  | 14 µM | COc1cc(C(N)=O)ccc1Nc1nc(-c2sc(C)nc2C)cs1 [Example 35, 4-(2′,4′-Dimethyl-[4,5′]bithiazolyl-2-ylamino)-3-methoxy-benzamide]
17 | 6.7 µM |  | 21 µM | CCN(CC)S(=O)(=O)c1ccc(OC)c(Nc2nc(-c3sc(NC(C)=O)nc3C)cs2)c1 [Example 20, N-[2-(5-Diethylsulfamoyl-2-methoxy-phenylamino)-4′-methyl-[4,5]bithiazolyl-2′-yl]-acetamide]
18 |  | 0.067 µM |  | Cc1nc(C2CCN(C)CC2)sc1-c1csc(Nc2cc(S(N)(=O)=O)ccc2OC(C)C)n1 [Example 156, 4-Isopropoxy-3-((4′-methyl-2′-(1-methylpiperidin-4-yl)-[4,5′-bithiazol]-2-yl)amino)benzenesulfonamide.TFA]
19 | 1.6 µM |  | 6.4 µM | COc1ccc(C(F)(F)F)cc1Nc1nc(-c2sc(N)nc2C)cs1 [Example 22, N^2-(2-Methoxy-5-trifluoromethyl-phenyl)-4′-methyl-[4,5′]bithiazolyl-2,2′-diamine.HBr]
20 |  | 3.6 µM |  | CC(=O)Nc1nc(C)c(-c2csc(Nc3cccc4cc(C)oc34)n2)s1 [Example 9, N-[4′-Methyl-2-(2-methyl-benzofuran-7-ylamino)-[4,5′]bithiazolyl-2′-yl]-acetamide]

Row | SMILES | Kd [1] | IC50 [2] | Kd [3]
21 | CCC(C)Oc1ccc(C(N)=O)cc1Nc1nc(-c2sc(C)nc2C)cs1 (racemic) [Example 14, (±)-4-sec-Butoxy-3-(2′,4′-dimethyl-[4,5′]bithiazolyl-2-ylamino)-benzamide.TFA] | 7 µM | 4.7 µM | 0.57 µM
